From ChEMBL document CHEMBL4806959, “Antagonistic peptides for frizzled-1 and frizzled-2” (2015)
The source made the active and inactive calls. No cut-off for these calls is given here. Positions of bridges follow the written chain, without caps; N, C: chain ends. Residues, ends and D or L forms follow the SMILES beside them.

Experiments:
[1] = target: Frizzled-1 (Homo sapiens) (UniProt Q9UP38); experiment: Antagonist activity at Wnt3a-stimulated frizzled-1 (unknown origin) expressed in human HEK293superTOP flash cells incubated for 24 hrs by luciferase reporter gene assay; format: functional, cell-based; conditions: HEK293
Sequence of Frizzled-1 (Homo sapiens) (Q9UP38 70-647 limits assumed): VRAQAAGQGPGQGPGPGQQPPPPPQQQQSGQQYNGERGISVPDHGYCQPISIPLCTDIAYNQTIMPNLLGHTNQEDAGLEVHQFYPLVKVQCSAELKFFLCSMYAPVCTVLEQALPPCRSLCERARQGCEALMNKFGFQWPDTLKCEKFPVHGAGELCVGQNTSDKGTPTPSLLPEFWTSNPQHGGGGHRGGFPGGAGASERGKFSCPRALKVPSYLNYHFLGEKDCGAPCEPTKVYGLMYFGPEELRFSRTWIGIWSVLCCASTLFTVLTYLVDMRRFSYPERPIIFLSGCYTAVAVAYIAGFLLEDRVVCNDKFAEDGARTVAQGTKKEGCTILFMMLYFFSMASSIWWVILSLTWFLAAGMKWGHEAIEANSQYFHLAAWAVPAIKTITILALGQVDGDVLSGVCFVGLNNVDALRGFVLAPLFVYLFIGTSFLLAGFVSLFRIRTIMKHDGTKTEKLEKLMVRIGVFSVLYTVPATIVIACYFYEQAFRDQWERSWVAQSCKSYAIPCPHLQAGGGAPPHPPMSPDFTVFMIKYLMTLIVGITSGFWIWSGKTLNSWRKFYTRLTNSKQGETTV

Frizzled-2 [2] = target: T1, Frizzled-2 (Homo sapiens, UniProt Q14332); experiment: Antagonist activity at Wnt3a-stimulated frizzled-2 (unknown origin) expressed in human HEK293superTOP flash cells incubated for 24 hrs by luciferase reporter gene assay; format: functional, cell-based; conditions: HEK293
Target sequence in this assay (Q14332 24-565 limits assumed): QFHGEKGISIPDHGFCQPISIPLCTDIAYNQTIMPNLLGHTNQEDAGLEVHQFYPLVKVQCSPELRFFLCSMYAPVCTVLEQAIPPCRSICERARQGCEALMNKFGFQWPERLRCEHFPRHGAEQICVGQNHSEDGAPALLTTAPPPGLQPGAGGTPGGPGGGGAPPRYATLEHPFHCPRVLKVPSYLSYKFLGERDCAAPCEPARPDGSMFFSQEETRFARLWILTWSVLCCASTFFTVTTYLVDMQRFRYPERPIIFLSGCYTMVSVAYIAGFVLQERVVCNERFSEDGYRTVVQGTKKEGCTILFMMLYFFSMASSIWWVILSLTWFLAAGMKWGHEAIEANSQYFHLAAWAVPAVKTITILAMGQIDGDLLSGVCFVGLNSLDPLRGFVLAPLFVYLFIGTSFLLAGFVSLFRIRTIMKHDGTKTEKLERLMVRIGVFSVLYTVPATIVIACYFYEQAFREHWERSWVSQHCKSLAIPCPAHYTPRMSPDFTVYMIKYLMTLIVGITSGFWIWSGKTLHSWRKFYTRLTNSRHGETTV

[3] = target: Frizzled-1 (Homo sapiens) (UniProt Q9UP38); experiment: Agonist activity at frizzled-1 (unknown origin) expressed in human HEK293superTOP flash cells by luciferase reporter gene assay; format: functional, cell-based; conditions: HEK293
Frizzled-2 [4] = target: T1, Frizzled-2; experiment: Agonist activity at frizzled-2 (unknown origin) expressed in human HEK293superTOP flash cells by luciferase reporter gene assay; format: functional, cell-based; conditions: hek293
Target sequence in this assay (Q14332 whole entry): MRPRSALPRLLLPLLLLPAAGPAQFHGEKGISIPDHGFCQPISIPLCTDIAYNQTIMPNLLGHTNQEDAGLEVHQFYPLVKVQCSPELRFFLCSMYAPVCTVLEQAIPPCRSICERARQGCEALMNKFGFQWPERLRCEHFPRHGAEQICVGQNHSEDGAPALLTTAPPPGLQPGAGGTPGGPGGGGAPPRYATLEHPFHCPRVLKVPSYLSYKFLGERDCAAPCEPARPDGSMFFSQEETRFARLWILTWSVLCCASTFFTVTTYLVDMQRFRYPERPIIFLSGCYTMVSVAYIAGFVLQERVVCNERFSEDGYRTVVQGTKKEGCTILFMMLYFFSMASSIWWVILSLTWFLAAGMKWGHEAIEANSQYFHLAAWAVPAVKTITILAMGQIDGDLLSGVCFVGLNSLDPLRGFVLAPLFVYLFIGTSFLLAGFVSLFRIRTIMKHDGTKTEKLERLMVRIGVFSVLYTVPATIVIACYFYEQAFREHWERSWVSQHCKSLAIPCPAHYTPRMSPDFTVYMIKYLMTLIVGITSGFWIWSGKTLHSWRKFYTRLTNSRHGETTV

[5] = target: Frizzled-5 (Homo sapiens) (UniProt Q13467); experiment: Agonist activity at frizzled-5 (unknown origin) expressed in human HEK293superTOP flash cells by luciferase reporter gene assay; format: functional, cell-based; conditions: HEK293
Sequence of Frizzled-5 (Homo sapiens) (Q13467 whole entry): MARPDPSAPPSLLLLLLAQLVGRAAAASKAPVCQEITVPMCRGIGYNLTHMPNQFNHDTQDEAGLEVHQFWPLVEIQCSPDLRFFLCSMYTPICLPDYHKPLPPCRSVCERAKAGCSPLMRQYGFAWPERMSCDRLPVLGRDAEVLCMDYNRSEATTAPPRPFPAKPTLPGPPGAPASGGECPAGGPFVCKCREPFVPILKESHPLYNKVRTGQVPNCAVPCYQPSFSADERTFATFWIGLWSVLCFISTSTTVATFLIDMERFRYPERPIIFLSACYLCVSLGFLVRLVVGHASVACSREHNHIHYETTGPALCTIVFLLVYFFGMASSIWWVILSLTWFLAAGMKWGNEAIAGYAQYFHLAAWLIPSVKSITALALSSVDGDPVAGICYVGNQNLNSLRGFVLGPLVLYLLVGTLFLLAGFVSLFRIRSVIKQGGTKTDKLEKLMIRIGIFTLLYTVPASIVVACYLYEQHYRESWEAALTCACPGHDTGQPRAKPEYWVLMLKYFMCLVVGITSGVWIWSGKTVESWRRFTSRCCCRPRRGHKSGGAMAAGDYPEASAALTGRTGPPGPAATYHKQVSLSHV

[6] = target: T2, Frizzled-4 (Homo sapiens) (UniProt Q9ULV1); experiment: Agonist activity at frizzled-4 (unknown origin) expressed in human HEK293superTOP flash cells by luciferase reporter gene assay; format: functional, cell-based; conditions: HEK293
T2 sequence (whole entry): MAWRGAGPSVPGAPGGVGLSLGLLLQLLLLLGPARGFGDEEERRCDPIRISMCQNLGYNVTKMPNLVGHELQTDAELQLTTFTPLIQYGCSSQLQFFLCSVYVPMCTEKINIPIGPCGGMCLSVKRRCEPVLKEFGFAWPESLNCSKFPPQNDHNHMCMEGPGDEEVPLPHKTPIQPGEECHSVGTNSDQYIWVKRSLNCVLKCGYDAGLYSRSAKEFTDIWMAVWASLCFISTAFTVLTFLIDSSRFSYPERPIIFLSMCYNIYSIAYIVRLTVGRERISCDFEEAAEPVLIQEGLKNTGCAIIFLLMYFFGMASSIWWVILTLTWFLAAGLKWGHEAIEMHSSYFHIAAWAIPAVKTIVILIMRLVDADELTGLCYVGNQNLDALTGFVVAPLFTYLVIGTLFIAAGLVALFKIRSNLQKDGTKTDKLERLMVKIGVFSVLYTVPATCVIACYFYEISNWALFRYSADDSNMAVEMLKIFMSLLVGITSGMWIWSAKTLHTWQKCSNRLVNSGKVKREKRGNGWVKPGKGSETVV

[7] = target: Frizzled-1 (Rattus norvegicus) (UniProt Q08463); experiment: Agonist activity at rat frizzled-1 expressed in CHO cells by luciferase reporter gene assay; format: cell-based
Sequence of Frizzled-1 (Rattus norvegicus) (Q08463 whole entry): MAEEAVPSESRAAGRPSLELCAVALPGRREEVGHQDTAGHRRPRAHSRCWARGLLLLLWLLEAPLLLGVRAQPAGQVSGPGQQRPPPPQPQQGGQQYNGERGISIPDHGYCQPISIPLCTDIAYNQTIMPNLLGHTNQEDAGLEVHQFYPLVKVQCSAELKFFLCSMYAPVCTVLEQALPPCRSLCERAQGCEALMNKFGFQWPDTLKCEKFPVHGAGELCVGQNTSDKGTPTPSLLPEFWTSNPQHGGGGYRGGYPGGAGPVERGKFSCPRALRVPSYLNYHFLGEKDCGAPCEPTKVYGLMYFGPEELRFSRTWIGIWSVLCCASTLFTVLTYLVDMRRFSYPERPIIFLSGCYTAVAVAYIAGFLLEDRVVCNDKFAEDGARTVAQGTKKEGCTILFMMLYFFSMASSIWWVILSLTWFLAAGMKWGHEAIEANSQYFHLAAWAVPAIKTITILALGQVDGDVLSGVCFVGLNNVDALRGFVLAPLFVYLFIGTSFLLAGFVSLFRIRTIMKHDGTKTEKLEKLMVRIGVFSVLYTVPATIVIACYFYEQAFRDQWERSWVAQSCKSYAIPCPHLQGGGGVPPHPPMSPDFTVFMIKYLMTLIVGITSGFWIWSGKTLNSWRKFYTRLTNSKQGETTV

[8] = target: Frizzled-2 (Rattus norvegicus) (UniProt Q08464); experiment: Agonist activity at rat frizzled-2 expressed in African green monkey COS7 cells by luciferase reporter gene assay; format: cell-based
Sequence of Frizzled-2 (Rattus norvegicus) (Q08464 29-570 limits assumed): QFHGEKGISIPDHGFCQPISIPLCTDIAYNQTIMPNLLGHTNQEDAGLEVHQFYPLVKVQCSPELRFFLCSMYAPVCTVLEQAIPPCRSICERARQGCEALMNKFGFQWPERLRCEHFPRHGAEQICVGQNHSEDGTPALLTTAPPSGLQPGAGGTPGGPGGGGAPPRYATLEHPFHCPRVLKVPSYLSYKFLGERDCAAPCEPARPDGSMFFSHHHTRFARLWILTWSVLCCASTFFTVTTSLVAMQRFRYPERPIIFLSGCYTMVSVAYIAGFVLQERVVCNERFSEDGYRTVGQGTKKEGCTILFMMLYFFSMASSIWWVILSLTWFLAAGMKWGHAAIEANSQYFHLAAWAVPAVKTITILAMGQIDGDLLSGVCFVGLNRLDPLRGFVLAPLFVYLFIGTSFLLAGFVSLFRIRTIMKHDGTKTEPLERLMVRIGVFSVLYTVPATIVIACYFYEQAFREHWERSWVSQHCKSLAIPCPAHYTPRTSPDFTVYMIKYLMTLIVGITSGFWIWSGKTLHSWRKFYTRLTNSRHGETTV

[9] = target: Frizzled-1 (Rattus norvegicus) (UniProt Q08463); experiment: Agonist activity at rat frizzled-1 expressed in African green monkey COS7 cells by luciferase reporter gene assay; format: cell-based
[10] = target: Frizzled-2 (Rattus norvegicus) (UniProt Q08464); experiment: Agonist activity at rat frizzled-2 expressed in CHO cells by luciferase reporter gene assay; format: cell-based
[11] = target: Frizzled-1 (Rattus norvegicus) (UniProt Q08463); experiment: Agonist activity at rat frizzled-1 expressed in human HEK293superTOP flash cells by luciferase reporter gene assay; format: cell-based; conditions: HEK293
[12] = target: Frizzled-2 (Rattus norvegicus) (UniProt Q08464); experiment: Agonist activity at rat frizzled-2 expressed in human HEK293superTOP flash cells by luciferase reporter gene assay; format: cell-based; conditions: HEK293

inhibition [1]	inhibition (Frizzled-2 [2])	Activity [3]	EC50 (Frizzled-2 [4])	Activity [5]	Activity [6]	Activity [7]	Activity [8]	Activity [9]	Activity [10]	Activity [11]	Activity [12]	Compound
inactive	inactive	inactive	Not Active	–	–	–	–	–	–	–	–	CSCC[C@H](NC(C)=O)C(=O)N[C@@H](CC(N)=O)C(=O)N[C@@H](CCCNC(=N)N)C(=O)N[C@@H](Cc1cnc[nH]1)C(=O)N[C@@H](CC(N)=O)C(=O)N[C@@H](CC(N)=O)C(=O)N[C@@H](CCC(=O)O)C(=O)N[C@@H](C)C(=O)NCC(=O)N[C@@H](CCCNC(=N)N)C(N)=O (Ac-MNRHNNEAGR-NH2)
inactive	inactive	inactive	Not Active	–	–	–	–	–	–	–	–	CC(=O)NCC(=O)N[C@@H](CO)C(=O)N[C@@H](CCCCN)C(=O)NCC(=O)N[C@H](C(=O)N[C@@H](CCC(N)=O)C(=O)NCC(=O)N[C@@H](CCCNC(=N)N)C(=O)N[C@@H](C)C(=O)N[C@@H](CS)C(=O)N[C@@H](CC(N)=O)C(N)=O)[C@@H](C)O (Ac-GSKGTQGRACN-NH2)
inactive	inactive	inactive	Not Active	–	–	–	–	–	–	–	–	CC(=O)N[C@@H](CS)C(=O)N[C@@H](CCCCN)C(=O)N[C@@H](CS)C(=O)N[C@@H](Cc1cnc[nH]1)C(=O)NCC(=O)N[C@H](C(=O)N[C@@H](CO)C(=O)NCC(=O)N[C@@H](CO)C(=O)N[C@@H](CS)C(=O)N[C@H](C(=O)N[C@H](C(=O)N[C@@H](CCCCN)C(=O)N[C@H](C(=O)N[C@@H](CS)C(=O)N[C@@H](Cc1c[nH]c2ccccc12)C(N)=O)[C@@H](C)O)C(C)C)[C@@H](C)O)C(C)C (Ac-CKCHGVSGSCTVKTCW-NH2)
–	–	–	–	inactive	inactive	–	–	–	–	–	–	CSCC[C@@H]1NC(=O)CNC(=O)[C@H](CCC(=O)O)NC(=O)[C@H](CO)NC(=O)[C@H]([C@@H](C)O)NC(=O)[C@H](CCCCN)NC(=O)[C@H](CC(N)=O)NC(=O)[C@@H](NC(C)=O)CSSC[C@@H](C(=O)N[C@@H](CCC(=O)O)C(=O)N[C@@H](CC(C)C)C(N)=O)NC(=O)CNC(=O)[C@H](CC(=O)O)NC1=O (Ac-CNKTSEGMDGCEL-NH2; disulfide 1-11)
inactive	inactive	inactive	Not Active	–	–	–	–	–	–	–	–	CC[C@H](C)[C@H](NC(=O)[C@H](CC(N)=O)NC(=O)[C@H](CC(=O)O)NC(=O)[C@H](CO)NC(=O)[C@H](CS)NC(=O)[C@H](CCC(=O)O)NC(=O)CNC(=O)[C@H](Cc1c[nH]c2ccccc12)NC(=O)[C@H](CCC(=O)O)NC(=O)[C@H](Cc1c[nH]c2ccccc12)NC(=O)[C@H](CC(=O)O)NC(=O)CNC(C)=O)C(N)=O (Ac-GDWEWGECSDNI-NH2)
inactive	inactive	inactive	Not Active	–	–	–	–	–	–	–	–	CSCC[C@H](NC(=O)CNC(=O)[C@H](CO)NC(=O)[C@H](CCCCN)NC(=O)[C@H](CC(N)=O)NC(=O)[C@H](CS)NC(C)=O)C(=O)N[C@@H](CC(=O)O)C(=O)NCC(=O)N[C@@H](CS)C(=O)N[C@@H](CCC(=O)O)C(=O)N[C@@H](CC(C)C)C(N)=O (Ac-CNKSGMDGCEL-NH2)
–	–	–	–	–	–	inactive	inactive	inactive	inactive	inactive	inactive	CC[C@H](C)[C@H](NC(=O)CNC(C)=O)C(=O)N[C@@H](CCCCN)C(=O)N[C@@H](CCC(=O)O)C(=O)N[C@@H](CS)C(=O)N[C@@H](CCC(N)=O)C(=O)N[C@@H](Cc1ccc(O)cc1)C(=O)N[C@@H](CCC(N)=O)C(=O)N[C@@H](Cc1ccccc1)C(=O)N[C@@H](CCCNC(=N)N)C(=O)N[C@@H](Cc1c[nH]cn1)C(=O)N[C@@H](CCCNC(=N)N)C(=O)N[C@@H](CCCNC(=N)N)C(=O)N[C@@H](Cc1c[nH]c2ccccc12)C(=O)N[C@@H](CC(N)=O)C(=O)N[C@@H](CS)C(=O)N[C@@H](CO)C(=O)N[C@H](C(=O)N[C@H](C(=O)N[C@@H](CC(=O)O)C(N)=O)C(C)C)[C@@H](C)O (Ac-GIKECQYQFRHRRWNCSTVD-NH2)
inactive	inactive	inactive	Not Active	–	–	–	–	–	–	–	–	CC[C@H](C)[C@H](NC(C)=O)C(=O)N[C@@H](CCC(=O)O)C(=O)N[C@@H](CCC(=O)O)C(=O)N[C@@H](CS)C(=O)N[C@@H](CCC(N)=O)C(=O)N[C@@H](Cc1cnc[nH]1)C(=O)N[C@@H](CCC(N)=O)C(=O)N[C@@H](Cc1ccccc1)C(=O)N[C@@H](CCCNC(=N)N)C(=O)N[C@@H](CC(=O)O)C(=O)N[C@@H](CCCNC(=N)N)C(=O)N[C@@H](CCCNC(=N)N)C(=O)N[C@@H](Cc1c[nH]c2ccccc12)C(=O)N[C@@H](CC(N)=O)C(=O)N[C@@H](CS)C(N)=O (Ac-IEECQHQFRDRRWNC-NH2)
–	–	–	–	–	–	inactive	inactive	inactive	inactive	inactive	inactive	CC(=O)NCC(=O)N[C@@H](CO)C(=O)N[C@@H](CS)C(=O)N[C@@H](CO)C(=O)N[C@@H](CC(C)C)C(=O)N[C@@H](CCCCN)C(=O)N[C@H](C(=O)N[C@@H](CS)C(=O)N[C@@H](Cc1c[nH]c2ccccc12)C(=O)N[C@@H](CC(C)C)C(=O)N[C@@H](CCC(N)=O)C(=O)N[C@@H](CC(C)C)C(=O)N[C@@H](C)C(=O)N[C@@H](CC(=O)O)C(N)=O)[C@@H](C)O (Ac-GSCSLKTCWLQLAD-NH2)
inactive	inactive	inactive	Not Active	–	–	–	–	–	–	–	–	CC(=O)N[C@@H](CC(=O)O)C(=O)N[C@@H](CC(C)C)C(=O)N[C@H](C(=O)N[C@@H](Cc1ccc(O)cc1)C(=O)N[C@@H](Cc1ccccc1)C(=O)N[C@@H](CCC(=O)O)C(=O)N[C@@H](CC(C)C)C(=O)N[C@@H](CO)C(=O)N1CCC[C@H]1C(=O)N[C@@H](CC(=O)O)C(=O)N[C@@H](Cc1ccccc1)C(=O)N[C@@H](CS)C(=O)N[C@@H](C)C(N)=O)C(C)C (Ac-DLVYFELSPDFCA-NH2)
